Test results published in ChEMBL document CHEMBL3774345, “Synthesis of new diarylamides with pyrimidinyl pyridine scaffold and evaluation of their anti-proliferative effect on cancer cell lines” (Bioorg Med Chem Lett, 2016).

Legend:
Assay type in all cases: functional
[1] = Cytotoxicity against human HOP62 cells after 24 hrs by SRB assay; conditions: HOP-62, 24 h
[2] = Cytotoxicity against human DU145 cells after 24 hrs by SRB assay; conditions: DU-145, 24 h
[3] = Cytotoxicity against human HL-60(TB) cells assessed as cell growth at 10^-4 M after 24 hrs by SRB assay; conditions: HL-60, 24 h, read-out: Activity
HT-29 [4] = test: Cytotoxicity against human HT-29 cells assessed as cell growth at 10^-4 M after 24 hrs by SRB assay; conditions: HT-29, 24 h, read-out: Activity
[5] = Cytotoxicity against human NCI-ADR-RES cells assessed as cell growth at 10^-8 M after 24 hrs by SRB assay; conditions: read-out: Activity
MDA-MB-231 [6] = test: Cytotoxicity against human MDA-MB-231 cells assessed as cell growth at 10^-6 M after 24 hrs by SRB assay; conditions: MDA-MB-231, 24 h, read-out: Activity
SK-MEL-2 [7] = test: Cytotoxicity against human SK-MEL-2 cells assessed as cell growth at 10^-6 M after 24 hrs by SRB assay; conditions: SK-MEL-2, 24 h, read-out: Activity
SN12C = test: Cytotoxicity against human SN12C cells after 24 hrs by SRB assay
MDA-MB-231 [8] = test: Cytotoxicity against human MDA-MB-231 cells assessed as cell growth at 10^-8 M after 24 hrs by SRB assay; conditions: MDA-MB-231, 24 h, read-out: Activity
T47D = test: Cytotoxicity against human T47D cells assessed as cell growth at 10^-4 M after 24 hrs by SRB assay; conditions: read-out: Activity
M14 = test: Cytotoxicity against human M14 cells assessed as cell growth at 10^-5 M after 24 hrs by SRB assay; conditions: M14, 24 h, read-out: Activity
KM12 = test: Cytotoxicity against human KM12 cells assessed as cell growth at 10^-8 M after 24 hrs by SRB assay; conditions: KM12, 24 h, read-out: Activity
[9] = Cytotoxicity against human SNB75 cells assessed as cell growth at 10^-5 M after 24 hrs by SRB assay; conditions: SNB-75, 24 h, read-out: Activity
SK-MEL-2 [10] = test: Cytotoxicity against human SK-MEL-2 cells assessed as cell growth at 10^-5 M after 24 hrs by SRB assay; conditions: SK-MEL-2, 24 h, read-out: Activity
[11] = Cytotoxicity against human UACC257 cells after 24 hrs by SRB assay; conditions: UACC-257, 24 h
SK-MEL-28 = test: Cytotoxicity against human SK-MEL-28 cells assessed as cell growth at 10^-4 M after 24 hrs by SRB assay; conditions: SK-MEL-28, 24 h, read-out: Activity
SR [12] = test: Cytotoxicity against human SR cells assessed as cell growth at 10^-4 M after 24 hrs by SRB assay; conditions: read-out: Activity
[13] = Cytotoxicity against human SW620 cells assessed as cell growth at 10^-8 M after 24 hrs by SRB assay; conditions: SW-620, 24 h, read-out: Activity
NCI-H226 = test: Cytotoxicity against human NCI-H226 cells assessed as cell growth at 10^-4 M after 24 hrs by SRB assay; conditions: NCI-H226, 24 h, read-out: Activity
EKVX [14] = test: Cytotoxicity against human EKVX cells assessed as cell growth at 10^-7 M after 24 hrs by SRB assay; conditions: read-out: Activity
SR [15] = test: Cytotoxicity against human SR cells assessed as cell growth at 10^-8 M after 24 hrs by SRB assay; conditions: read-out: Activity
EKVX [16] = test: Cytotoxicity against human EKVX cells assessed as cell growth at 10^-4 M after 24 hrs by SRB assay; conditions: read-out: Activity
[17] = Cytotoxicity against human OVCAR5 cells assessed as cell growth at 10^-7 M after 24 hrs by SRB assay; conditions: OVCAR-5, 24 h, read-out: Activity
[18] = Cytotoxicity against human HCC2998 cells assessed as cell growth at 10^-7 M after 24 hrs by SRB assay; conditions: HCC 2998, 24 h, read-out: Activity
[19] = Cytotoxicity against human SW620 cells assessed as cell growth at 10^-6 M after 24 hrs by SRB assay; conditions: SW-620, 24 h, read-out: Activity
[20] = Cytotoxicity against human COLO205 cells assessed as cell growth at 10^-5 M after 24 hrs by SRB assay; conditions: COLO 205, 24 h, read-out: Activity
[21] = Cytotoxicity against human HOP62 cells assessed as cell growth at 10^-6 M after 24 hrs by SRB assay; conditions: HOP-62, 24 h, read-out: Activity
[22] = Cytotoxicity against human PC3 cells assessed as cell growth at 10^-6 M after 24 hrs by SRB assay; conditions: PC-3, 24 h, read-out: Activity
[23] = Cytotoxicity against human SNB19 cells assessed as cell growth at 10^-6 M after 24 hrs by SRB assay; conditions: SNB-19, 24 h, read-out: Activity
[24] = Cytotoxicity against human SNB19 cells assessed as cell growth at 10^-5 M after 24 hrs by SRB assay; conditions: SNB-19, 24 h, read-out: Activity
[25] = Cytotoxicity against human SKOV3 cells after 24 hrs by SRB assay; conditions: SK-OV-3, 24 h
HT-29 [26] = test: Cytotoxicity against human HT-29 cells assessed as cell growth at 10^-6 M after 24 hrs by SRB assay; conditions: HT-29, 24 h, read-out: Activity
[27] = Cytotoxicity against human Caki1 cells assessed as cell growth at 10^-8 M after 24 hrs by SRB assay; conditions: CAKI-1, 24 h, read-out: Activity
[28] = Cytotoxicity against human SF268 cells assessed as cell growth at 10^-6 M after 24 hrs by SRB assay; conditions: SF-268, 24 h, read-out: Activity
[29] = Cytotoxicity against human SNB75 cells assessed as growth inhibition at 10 uM after 24 hrs by SRB assay; conditions: SNB-75, 24 h, read-out: GI
[30] = Cytotoxicity against human OVCAR8 cells assessed as growth inhibition at 10 uM after 24 hrs by SRB assay; conditions: OVCAR-8, 24 h, read-out: GI
[31] = read-out: LC50 (the source's name)
[32] = read-out: pLC50 (the source's name) (converted)

Structure (SMILES): O=C(Nc1cc(-c2cccnc2)nc(NCCCN2CCOCC2)n1)c1cc(Br)cc(C(F)(F)F)c1
- GI50 ([1]; read-out: GI50): 2.71 µM
- CC50 [1, 31]: 32.8 µM
- TGI ([1]; read-out: TGI): 9.98 µM
- GI50 ([1]; read-out: pGI50 (converted)): 2.69 µM
- CC50 [1, 32]: 33.1 µM
- TGI ([1]; read-out: pTGI (converted)): 10 µM
- GI50 ([2]; read-out: GI50): 6.7 µM
- CC50 [2, 31]: 43.7 µM
- TGI ([2]; read-out: TGI): 19.1 µM
- GI50 ([2]; read-out: pGI50 (converted)): 6.76 µM
- CC50 [2, 32]: 43.7 µM
- TGI ([2]; read-out: pTGI (converted)): 19.1 µM
- growth at 100 µM [3]: -51%
- growth at 100 µM (HT-29 [4]): -83%
- growth at 0.01 µM [5]: 100%
- growth at 1 µM (MDA-MB-231 [6]): 87%
- growth at 1 µM (SK-MEL-2 [7]): 94%
- GI50 (SN12C; read-out: GI50): 7.74 µM
- CC50 (SN12C; [31]): 53.5 µM
- TGI (SN12C; read-out: TGI): 21.8 µM
- GI50 (SN12C; read-out: pGI50 (converted)): 7.76 µM
- CC50 (SN12C; [32]): 53.7 µM
- TGI (SN12C; read-out: pTGI (converted)): 22.4 µM
- growth at 0.01 µM (MDA-MB-231 [8]): 90%
- growth at 100 µM (T47D): -83%
- growth at 10 µM (M14): -80%
- growth at 0.01 µM (KM12): 99%
- growth at 10 µM [9]: -60%
- growth at 10 µM (SK-MEL-2 [10]): 27%
- GI50 ([11]; read-out: GI50): 2.1 µM
- CC50 [11, 31]: 6.8 µM
- TGI ([11]; read-out: TGI): 3.78 µM
- GI50 ([11]; read-out: pGI50 (converted)): 2.09 µM
- CC50 [11, 32]: 6.76 µM
- TGI ([11]; read-out: pTGI (converted)): 3.8 µM
- growth at 100 µM (SK-MEL-28): -77%
- growth at 100 µM (SR [12]): -1%
- growth at 0.01 µM [13]: 98%
- growth at 100 µM (NCI-H226): -89%
- growth at 0.1 µM (EKVX [14]): 80%
- growth at 0.01 µM (SR [15]): 106%
- growth at 100 µM (EKVX [16]): -89%
- growth at 0.1 µM [17]: 92%
- growth at 0.1 µM [18]: 100%
- growth at 1 µM [19]: 95%
- growth at 10 µM [20]: -79%
- growth at 1 µM [21]: 88%
- growth at 1 µM [22]: 92%
- growth at 1 µM [23]: 105%
- growth at 10 µM [24]: -33%
- GI50 ([25]; read-out: GI50): 7.26 µM
- CC50 [25, 31]: 44.9 µM
- TGI ([25]; read-out: TGI): 19.9 µM
- GI50 ([25]; read-out: pGI50 (converted)): 7.24 µM
- CC50 [25, 32]: 44.7 µM
- TGI ([25]; read-out: pTGI (converted)): 20 µM
- growth at 1 µM (HT-29 [26]): 94%
- growth at 0.01 µM [27]: 99%
- growth at 1 µM [28]: 85%

Structure (SMILES): COCCCNc1nc(NC(=O)c2cc(OC)cc(OC)c2)cc(-c2cccnc2)n1
- inhibition of growth at 10 µM [29]: 26.9%
- inhibition of growth at 10 µM [30]: 20.7%
